Results: PMC4330696, “Characterization of the serine acetyltransferase gene family of Vitis vinifera uncovers differences in regulation of OAS synthesis in woody plants” (Frontiers in Plant Science, 2015)

Assays:
VvSERAT2;1 = target: T1, VvSERAT2;1 (Vitis vinifera, UniProt F6HCV5); assay: SERAT activity assay, titration with cysteine up to […]; assay type: biochemical; conditions: read-out: Cys Inhibition (IC50 mM)
T1 construct: gene VIT_00s0194g00120; N-terminal His tag (pET28a), E. coli; lacks predicted transit peptide (57 residues predicted); naturally lacks canonical C-terminal tail; free SERAT without OASTL
T1 sequence (F6HCV5 58-306): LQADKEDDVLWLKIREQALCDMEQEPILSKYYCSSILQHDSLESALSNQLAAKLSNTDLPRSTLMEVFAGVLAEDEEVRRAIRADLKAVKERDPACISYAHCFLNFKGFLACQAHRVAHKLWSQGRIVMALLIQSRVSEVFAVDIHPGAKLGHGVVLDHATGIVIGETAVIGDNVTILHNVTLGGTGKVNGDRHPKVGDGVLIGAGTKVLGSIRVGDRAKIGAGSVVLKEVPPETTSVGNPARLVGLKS

AtOASTL-B = target: T2, AtOASTL-B (Arabidopsis thaliana, UniProt P47999); assay: OASTL activity assay (Gaitonde); […]-1 pmol enzyme, turnover only; assay type: biochemical; conditions: co-substrate sulfide; control without SERAT
T2 construct: gene OASB; recombinant, expressed in E. coli (Wirtz et al. 2004)
T2 sequence (P47999 61-392): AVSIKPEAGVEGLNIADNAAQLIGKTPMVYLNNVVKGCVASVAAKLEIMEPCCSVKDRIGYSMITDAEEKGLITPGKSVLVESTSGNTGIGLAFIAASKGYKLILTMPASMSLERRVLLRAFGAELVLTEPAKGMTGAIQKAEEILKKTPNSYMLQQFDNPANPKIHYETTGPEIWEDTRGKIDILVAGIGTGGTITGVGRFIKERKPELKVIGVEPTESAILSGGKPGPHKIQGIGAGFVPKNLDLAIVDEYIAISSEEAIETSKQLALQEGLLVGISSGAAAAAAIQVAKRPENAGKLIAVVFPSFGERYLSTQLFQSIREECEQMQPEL

Row | IC50 (VvSERAT2;1) | Compound | OASTL activity (AtOASTL-B)
1 | 1.9 ± 0.56 mM | N[C@@H](CS)C(=O)O [L-Cys] | –
2 | – | CC(=O)OC[C@H](N)C(=O)O [O-acetylserine] | Enzymatic activity of OASTL was determined according to Gaitonde
